Assay results as given in PMC12032945, “Estrogenic activity of E2-conjugated GLP-1 is mediated by intracellular endolysosomal acidification and estrone metabolism” (Molecular Metabolism, 2025).

Columns and labels:
ERα and SP-1 = test: Proximity ligation assay (PLA) ERα / SP-1; format: cell-based, human (hERα) in HEK293T cells; conditions: 1 μM; HEK293T overexpressing hGLP-1R and ERα
[1] = test system: G-protein coupled estrogen receptor 1 (GPER1); test: cAMP production in GPER1+ HEK293T cells; format: cell-based
GLP-1R+ HEK293T cells = test: estrone-3-sulfate ELISA in cell lysate; format: cell-based; conditions: 1 μM, 2 h
ERα = molecular target: T1, ERα (Homo sapiens, UniProt P03372); test: Estrogen response element (ERE) luciferase reporter; format: cell-based, human (hERα) in HEK293T cells; conditions: bafilomycinA1 (5 μM) or EN6 (50 μM) with E2 or E2-3-ether; 24 h
T1 sequence (P03372 1-595): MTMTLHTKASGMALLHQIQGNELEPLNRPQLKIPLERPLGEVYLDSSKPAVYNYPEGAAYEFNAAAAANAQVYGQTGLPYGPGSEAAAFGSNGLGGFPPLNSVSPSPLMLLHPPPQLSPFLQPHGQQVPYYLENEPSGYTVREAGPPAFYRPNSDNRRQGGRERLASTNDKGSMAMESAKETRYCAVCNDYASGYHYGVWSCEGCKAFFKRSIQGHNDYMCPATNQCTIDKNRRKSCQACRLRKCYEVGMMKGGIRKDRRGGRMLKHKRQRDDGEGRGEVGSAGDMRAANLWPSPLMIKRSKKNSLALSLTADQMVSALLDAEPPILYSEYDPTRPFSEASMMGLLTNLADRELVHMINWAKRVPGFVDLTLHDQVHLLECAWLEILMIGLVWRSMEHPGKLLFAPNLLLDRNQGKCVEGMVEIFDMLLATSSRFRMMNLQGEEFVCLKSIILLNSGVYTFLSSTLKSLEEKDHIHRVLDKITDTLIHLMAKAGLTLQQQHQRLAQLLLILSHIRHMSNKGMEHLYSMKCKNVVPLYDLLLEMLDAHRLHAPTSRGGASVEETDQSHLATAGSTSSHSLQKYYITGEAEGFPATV

[2] = test system: GLP-1R / Rab5+ early endosomes; test: GLP-1R colocalization with Rab5+ early endosomes, BRET; conditions: with GLP-1 (7-36)amide (1 μM)
hGLP-1R [3] = molecular target: T2, hGLP-1R (Homo sapiens, UniProt P43220); test: β-arrestin-2-Rluc8 recruitment, BRET, MIN6; format: cell-based, human (hGLP-1R) in mouse MIN6 cells
hGLP-1R [4] = molecular target: T2, hGLP-1R; test: Nluc-mGαs recruitment to GLP-1R, BRET, MIN6; format: cell-based, human (hGLP-1R) in mouse MIN6 cells
hGLP-1R [5] = molecular target: T2, hGLP-1R; test: β-arrestin-2-Rluc8 recruitment, BRET, CLU177; format: cell-based, human (hGLP-1R) in mouse CLU177 cells
hGLP-1R [6] = molecular target: T2, hGLP-1R; test: cAMP production, CAMYEL BRET; format: cell-based, human (hGLP-1R) in HEK293T cells
hGLP-1R [7] = molecular target: T2, hGLP-1R; test: Nluc-mGαq recruitment to GLP-1R, BRET, MIN6; format: cell-based, human (hGLP-1R) in mouse MIN6 cells
hGLP-1R [8] = molecular target: T2, hGLP-1R; test: cAMP production, BRET, MIN6; format: cell-based, human (hGLP-1R) in mouse MIN6 cells
hGLP-1R [9] = molecular target: T2, hGLP-1R; test: Nluc-mGαs recruitment to GLP-1R-GFP, BRET; format: cell-based, human (hGLP-1R) in HEK293T cells
hGLP-1R [10] = molecular target: T2, hGLP-1R; test: GLP-1R-Rluc8 internalization, BRET, CLU177; format: cell-based, human (hGLP-1R) in mouse CLU177 cells
hGLP-1R [11] = molecular target: T2, hGLP-1R; test: GLP-1R-Rluc8 internalization away from GFP-CAAX, BRET; format: cell-based, human (hGLP-1R) in HEK293T cells
hGLP-1R [12] = molecular target: T2, hGLP-1R; test: β-arrestin-2-Rluc8 recruitment to GLP-1R-GFP, BRET; format: cell-based, human (hGLP-1R) in HEK293T cells
hGLP-1R [13] = molecular target: T2, hGLP-1R; test: Nluc-mGαs recruitment to GLP-1R, BRET, CLU177; format: cell-based, human (hGLP-1R) in mouse CLU177 cells
hGLP-1R [14] = molecular target: T2, hGLP-1R; test: GLP-1R-Rluc8 internalization, BRET, MIN6; format: cell-based, human (hGLP-1R) in mouse MIN6 cells
hGLP-1R [15] = molecular target: T2, hGLP-1R; test: cAMP production, BRET, CLU177; format: cell-based, human (hGLP-1R) in mouse CLU177 cells
hGLP-1R [16] = molecular target: T2, hGLP-1R; test: Nluc-mGαq recruitment to GLP-1R-GFP, BRET; format: cell-based, human (hGLP-1R) in HEK293T cells

T2 sequence (P43220 24-463): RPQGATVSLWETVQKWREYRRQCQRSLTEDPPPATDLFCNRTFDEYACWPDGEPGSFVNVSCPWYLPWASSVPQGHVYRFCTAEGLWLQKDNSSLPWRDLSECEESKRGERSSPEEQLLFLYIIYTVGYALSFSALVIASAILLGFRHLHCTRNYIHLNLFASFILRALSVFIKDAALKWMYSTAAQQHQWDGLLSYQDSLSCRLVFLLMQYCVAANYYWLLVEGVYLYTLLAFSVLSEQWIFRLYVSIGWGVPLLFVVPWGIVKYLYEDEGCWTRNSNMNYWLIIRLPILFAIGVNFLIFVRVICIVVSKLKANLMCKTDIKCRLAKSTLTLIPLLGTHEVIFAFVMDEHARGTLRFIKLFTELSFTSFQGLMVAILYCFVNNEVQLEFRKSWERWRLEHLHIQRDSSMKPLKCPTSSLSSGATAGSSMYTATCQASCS

C[C@]12CC[C@@H]3c4ccc(O)cc4CC[C@H]3[C@@H]1CC[C@@H]2O [E2, 17β-estradiol]
PLA: proximal localization of ERα and SP-1 (ERα and SP-1): significantly increase the proximal localization of ERα and the nucleus-localized transcription factor specificity protein-1 (SP-1) relative to GLP-1 (7-36)amide | cAMP production via GPER1 [1]: did not observe E2-or G1-driven cAMP production

C[C@]12CC[C@@H]3c4ccc(OCC(=O)O)cc4CC[C@H]3[C@@H]1CC[C@@H]2O [E2-3-ether, estradiol 3-carboxymethyl ether]
estrone-3-sulfate levels (GLP-1R+ HEK293T cells): significantly increased estrone-3-sulfate levels

C=CC(=O)Nc1cc(NC(=O)c2cnn(-c3ccccc3F)c2)ccc1F [EN6]
off-target effect on stimulated ERα activation (ERα): did not have off-target effects on stimulated ERα activation by E2 or E2-3-ether | endosomal trafficking dynamics on EN6 treatment ([2]; 50 μM): without altering endosomal trafficking dynamics

CC(=O)c1ccc2c(c1)C1C=CCC1C(c1cc3c(cc1Br)OCO3)N2 (centres unmarked) [G1]
cAMP production via GPER1 [1]: did not observe E2-or G1-driven cAMP production

CC[C@H](C)[C@H](NC(=O)[C@H](Cc1ccccc1)NC(=O)[C@H](CCC(=O)O)NC(=O)[C@H](CCCCN)NC(=O)[C@H](C)NC(=O)[C@H](C)NC(=O)[C@H](CCC(N)=O)NC(=O)[C@H](CCC(=O)O)NC(=O)[C@H](CCC(=O)O)NC(=O)[C@H](CC(C)C)NC(=O)[C@H](Cc1ccc(O)cc1)NC(=O)[C@H](CO)NC(=O)[C@H](CO)NC(=O)[C@@H](NC(=O)[C@H](CC(=O)O)NC(=O)[C@H](CO)NC(=O)[C@@H](NC(=O)[C@H](Cc1ccccc1)NC(=O)[C@@H](NC(=O)CNC(=O)[C@H](CCC(=O)O)NC(=O)C(C)(C)NC(=O)[C@@H](N)Cc1c[nH]cn1)[C@@H](C)O)[C@@H](C)O)C(C)C)C(=O)N[C@@H](C)C(=O)N[C@@H](Cc1c[nH]c2ccccc12)C(=O)N[C@@H](CC(C)C)C(=O)N[C@H](C(=O)N[C@@H](CCCCN)C(=O)NCC(=O)NCC(=O)N1CCC[C@H]1C(=O)N[C@@H](CO)C(=O)N[C@@H](CO)C(=O)NCC(=O)N[C@@H](C)C(=O)N1CCC[C@H]1C(=O)N1CCC[C@H]1C(=O)N1CCC[C@H]1C(=O)N[C@@H](CO)C(=O)N[C@@H](CCCCNC(=O)COc1ccc2c(c1)CC[C@@H]1[C@@H]2CC[C@]2(C)[C@@H](O)CC[C@@H]12)C(N)=O)C(C)C [GLP-1-CEX/E2]
EC50 (hGLP-1R [3]): 39.2 nM | Emax (hGLP-1R [3]; MIN6): 99 ± 4.9% | EC50 (hGLP-1R [4]): 143 nM | Emax (hGLP-1R [4]; MIN6): 95.4 ± 7.7% | EC50 (hGLP-1R [5]): 162 nM | Emax (hGLP-1R [5]): 95.9 ± 4.1% | EC50 (hGLP-1R [6]): 16.8 nM | Emax (hGLP-1R [6]; HEK-293T): 111 ± 5.3% | EC50 (hGLP-1R [7]): 245 nM | Emax (hGLP-1R [7]; MIN6): 76.7 ± 12.2% | EC50 (hGLP-1R [8]): 0.963 nM | Emax (hGLP-1R [8]; MIN6): 99.1 ± 4% | EC50 (hGLP-1R [9]): 44.6 nM | Emax (hGLP-1R [9]; HEK-293T): 94.2 ± 5.2% | EC50 (hGLP-1R [10]): 142 nM | Emax (hGLP-1R [10]): 97.4 ± 14.8% | EC50 (hGLP-1R [11]): 5.01 nM | Emax (hGLP-1R [11]; HEK-293T): 90.9 ± 1.5% | EC50 (hGLP-1R [12]): 29.5 nM | Emax (hGLP-1R [12]; HEK-293T): 100 ± 2.6% | EC50 (hGLP-1R [13]): 62.2 nM | Emax (hGLP-1R [13]): 103 ± 5.7% | EC50 (hGLP-1R [14]): 158 nM | Emax (hGLP-1R [14]; MIN6): 98.6 ± 9.3% | EC50 (hGLP-1R [15]): 0.0316 nM | Emax (hGLP-1R [15]): 106 ± 6.2% | EC50 (hGLP-1R [16]): 47.8 nM | Emax (hGLP-1R [16]; HEK-293T): 94 ± 9%

CO/C1=C\C(C)=C\[C@@H](C)[C@@H](O)[C@@H](C)C/C(C)=C/C=C/[C@H](OC)[C@@H]([C@@H](C)[C@@H](O)[C@H](C)[C@@]2(O)C[C@@H](O)[C@H](C)[C@@H](C(C)C)O2)OC1=O [bafilomycinA1]
GLP-1R internalization on bafilomycinA1 pre/co-treatment (hGLP-1R [11]; 5 μM, with GLP-1 (7-36)amide (1 μM)): without affecting receptor internalization | off-target effect on stimulated ERα activation (ERα): did not have off-target effects on stimulated ERα activation by E2 or E2-3-ether | GLP-1R retention in Rab5+ early endosomes on bafilomycinA1 pre/co-treatment ([2]; 5 μM): significantly increases GLP-1R retention in Rab5^+ early endosomes

C=C[C@@]1(C)CC(=O)[C@]2(O)[C@@]3(C)[C@@H](O)CCC(C)(C)[C@@H]3[C@H](O)[C@H](OC(C)=O)[C@@]2(C)O1 [forskolin, reference compound]
saturation of the cAMP sensor (hGLP-1R [6]; forskolin 50 μM, hGLP-1R+ HEK293T): Saturation of the cAMP sensor was not achieved
